# What was measured:
# [1] = system: Human RSV-A (“Long” strain); test: RSV-A assay: CPE in Hep-2 cells, ATPlite readout; type: cell-based; details: human respiratory syncytial virus, 120 h, MOI 0.1, 5-day incubation
# Text: Hep-2 cells, (originally derived from tumors grown in irradiated-cortisonised weanling rats that had been injected with epidermoid carcinoma tissue from a person's larynx, but later found to be indistinguishable from HeLa cells by PCR DNA analysis), were used for the culturing of genotype A, “Long” strain RSV. Flasks were inoculated with RSV and viral stocks were collected once cytopathic effect (CPE) was greater than 90%. Viral stocks in 25% sucrose media were snap frozen using liquid nitrogen to increase viral stability. Viral stock titers were quantified by tissue culture infectious dose 50% (TCID50) using 8,000 cells per well and 3-fold viral dilutions across a 96-well plate, cultured for 4 days. Viral stock titers were also quantified by a plaque forming unit assay, as described elsewhere.
# Following extensive parameter testing, the final assay is run as follows: Hep-2 cells are seeded into the inner 60 wells of a 96-well plate at 8,000 cells per well in a volume of 50 μL using Growth Media (DMEM without phenol red, 1% L-Glut, 1% Penn/Strep, 1% nonessential amino acids, 10% heat-inactivated FBS). 2-fold serial dilutions of control and test compounds are added to the wells in duplicate in a total volume of 25 μL. Viral stock is then added to the wells at a multiplicity of infection (MOI) of 0.1 in a volume of 25 μL, bringing the total volume of each well to 100 μL. The MOI is calculated using the PFU/mL, or TCID50 if unavailable. Each 96-well plate has a control column of 6 wells with cells and virus but no compound (negative control, max CPE), a column with cells but no compound or virus (positive control, minimum CPE), and a column with no cells or virus or compound (background plate/reagent control). The control wells with cells but no virus are given an additional 25 μL of growth media containing an equal quantity of sucrose as those wells receiving the viral stock in order to keep consistent in media and volume conditions. The outer wells of the plate are filled with 125 μL of moat media (DMEM, 100 Penn/Strep) to act as a thermal and evaporative moat around the test wells. Following a 5-day incubation period, the plates are read using ATPlite (50 uL added per well), which quantifies the amount of ATP (a measure of cell health) present in each well. Assay plates are read using the Envision luminometer. […] EC50 ranges are as follows: A<0.01 μM; B 0.01-0.05 μM; C>0.05 μM.
# HMPV A2 TN/94-49 = test: HMPV antiviral assay: LLC-MK2 cells, ATP-Lite readout; type: cell-based; details: LLC-MK2, 168 h, MOI 0.005, 7 days incubation
# How it was run: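 LLC-MK2 cells (5,000/well) were infected in suspension with HMPV A2 TN/94-49 at MOI 0.005 in serum-free OptiMEM with 2 μg/mL final TPCK-trypsin, then incubated for 7 days at 37 °C. Compounds were tested in duplicate from 2 μM in 10-point 2.5-fold dilutions. ATP-Lite luminescence, normalised to virus-only and cells-only controls as % cell health, gave EC50 by four-parameter fit.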
SMILES,EC50 [1] [nM],EC50 (HMPV A2 TN/94-49) [nM]
COc1cc(C(=O)NC[C@@](O)(c2ccccc2)c2cc(C(N)=O)c(F)c(-c3cc(Cl)c(F)cc3F)n2)cc2cn(C3CC3)nc12 [Example 189],10 to 50,> 1000
"Cc1nc2c(OC3CC3)cc(C(=O)NC[C@](O)(c3cc(C(O)(C(F)(F)F)C(F)(F)F)c(F)c(-c4ccc(F)cc4)n3)C3CC3)cc2cc1Cl (single isomer, unassigned) [Example 48]",> 50,> 1000
"COc1cc(C(=O)NC[C@](O)(c2cc(C3(C(N)=O)CC3)cc(-c3ccc(F)c(Cl)c3F)n2)C2CC2)cc2cn(C3CC3)nc12 (single isomer, unassigned) [Example 26]",< 10,> 1000
COc1cc(C(=O)NC[C@@](O)(c2ccccc2)c2cc(C(C)(C)O)c(Cl)c(-c3ccc4c(c3Cl)OC(F)(F)O4)n2)cc2cn(C3CC3)nc12 [Example 136],< 10,< 1000
COc1cc(C(=O)NC[C@@](O)(c2ccccc2)c2cc(C(C)(C)O)c(F)c(-c3cc(F)c(F)cc3F)n2)cc2cn(C3CC3)nc12 [Example 86],< 10,> 1000
COc1cc(C(=O)NC[C@](O)(c2cc(C(C)(C)O)c(F)c(-c3cc(Cl)c(F)cc3F)n2)C2CC2)cc2cc(Cl)c(C)nc12 [Example 57],< 10,< 1000
"COc1cc(C(=O)NC[C@@](O)(c2ccccc2)c2cc(C(C)(C)O)c(Cl)c(-c3cc(Cl)c(F)cc3F)n2)cc2cn(C3CC3)nc12 (single isomer, unassigned) [Example 132]",< 10,< 1000
"COc1cc(C(=O)NC[C@](O)(c2cc(C3(C(N)=O)CC3)c(F)c(-c3cc(Cl)c(F)cc3F)n2)C2CC2)cc2cn(C3CC3)nc12 (single isomer, unassigned) [Example 11]",10 to 50,–
"Cc1nc2c(OC(F)F)cc(C(=O)NC[C@](O)(c3cc(C(O)(C(F)(F)F)C(F)(F)F)c(F)c(-c4ccc(F)cc4)n3)C3CC3)cc2cc1Br (single isomer, unassigned) [Example 46]",10 to 50,–
"COc1cc(C(=O)NC[C@](O)(c2cc(C3(C(N)=O)CC3)c(F)c(-c3cc(Cl)c(F)cc3F)n2)C2CC2)cc2cn(C3(F)CC3)nc12 (single isomer, unassigned) [Example 13]",10 to 50,–
"COc1cc(C(=O)NC[C@](O)(c2cc(C3(C(N)=O)CC3)cc(-c3ccc(F)c(Cl)c3F)n2)C2CC2)cc2cn(C(F)F)nc12 (single isomer, unassigned) [Example 27]",< 10,–
"COc1cc(C(=O)NC[C@](O)(c2cc(C3(C#N)CC3)c(F)c(-c3cc(Cl)c(F)cc3F)n2)C2CC2)cc2cn(C3CC3)nc12 (single isomer, unassigned) [Example 12]",10 to 50,–
"NC(=O)C(F)(F)c1cc([C@@](O)(CNC(=O)c2cc(OC3CC3)c3nn(C4CC4)cc3c2)C2CC2)nc(-c2ccc(F)c(Cl)c2F)c1F (single isomer, unassigned) [Example 36]",10 to 50,–
"Cc1nc2c(OC(F)F)cc(C(=O)NC[C@](O)(c3cc(C(C)(C)C(N)=O)c(F)c(-c4ccc(F)cc4)n3)C3CC3)cc2cc1Br (single isomer, unassigned) [Example 45]",10 to 50,–
"N#CC1(c2cc([C@@](O)(CNC(=O)c3cc(OC4CC4)c4nn(C5CC5)cc4c3)C3CC3)nc(-c3cc(Cl)c(F)cc3F)c2F)CC1 (single isomer, unassigned) [Example 15]",10 to 50,–
COc1cc(C(=O)NC[C@](O)(c2cc(C(F)(F)C#N)c(F)c(-c3cc(Cl)c(F)cc3F)n2)C2CC2)cc2cn(C3(F)CC3)nc12 [Example 40],10 to 50,–

# Continued, values first:
EC50 [1] [nM],EC50 (HMPV A2 TN/94-49) [nM],SMILES
10 to 50,> 1000,"Cc1nc2c(OC(F)F)cc(C(=O)NC[C@](O)(c3cc(C4(O)CC4)c(F)c(-c4ccc(F)cc4)n3)C3CC3)cc2cc1Br (single isomer, unassigned) [Example 51]"
< 10,< 1000,COc1cc(C(=O)NC[C@](O)(c2cc(C(C)(C)O)c(F)c(-c3ccc(F)cc3)n2)C2CC2)cc2cn(C(F)F)nc12 [Example 2]
10 to 50,> 1000,COc1cc(C(=O)NC[C@](O)(c2cc(C3(C#N)CC3)c(F)c(-c3cc(Cl)c(F)cc3F)n2)C2CC2)cc2cn(C(F)F)nc12 [Example 10]
< 10,< 1000,COc1cc(C(=O)NC[C@](O)(c2cc(C(C)(C)O)c(F)c(-c3cc(Cl)c(F)cc3F)n2)C2CC2)cc2cn(C3CC3)nc12 [Example 52]
10 to 50,> 1000,"COc1cc(C(=O)NC[C@](O)(c2cc(C3(C(N)=O)CC3)cc(-c3cc(Cl)c(F)cc3F)n2)C2CC2)cc2cn(C3CC3)nc12 (single isomer, unassigned) [Example 24]"
> 50,> 1000,COc1cc(C(=O)NC[C@](O)(c2cc(N3CC[C@@H](O)C3)cc(-c3cc(Cl)c(F)cc3F)n2)C2CC2)cc2cn(C3CC3)nc12 [Example 200]
< 10,< 1000,COc1cc(C(=O)NC[C@@](O)(c2ccccc2)c2cc(C(C)(C)O)c(F)c(-c3cc(Cl)c(F)cc3F)n2)cc2cn(C(F)F)nc12 [Example 62]
10 to 50,> 1000,COc1cc(C(=O)NC[C@](O)(c2cc(C(C)(C)F)c(F)c(-c3cc(Cl)c(F)cc3F)n2)C2CC2)cc2cn(C3CC3)nc12 [Example 177]
10 to 50,> 1000,"COc1cc(C(=O)NC[C@](O)(c2cc(C3(C(N)=O)CC3)c(F)c(-c3ccc(F)c(Cl)c3F)n2)C2CC2)cc2cc(Cl)c(C)nc12 (single isomer, unassigned) [Example 23]"
> 50,> 1000,COc1cc(C(=O)NC[C@](O)(c2cc(C3(O)CNC3)c(F)c(-c3cc(Cl)c(F)cc3F)n2)C2CC2)cc2cn(C3CC3)nc12 [Example 170]
< 10,< 1000,"COc1cc(C(=O)NC[C@](O)(c2cc(C(C)(C)O)c(F)c(-c3ccc(F)cc3)n2)C2CC2)cc2cc(C3CC3)nn12 (single isomer, unassigned) [Example 8]"
> 50,> 1000,COc1c(C(C)(C)O)cc([C@@](O)(CNC(=O)c2cc(OC)c3nn(C4CC4)cc3c2)C2CC2)nc1-c1cc(Cl)c(F)cc1F [Example 164]
< 10,> 1000,"COc1cc(C(=O)NC[C@](O)(c2cc(C3(C(N)=O)CC3)c(F)c(-c3cc(Cl)c(F)cc3F)n2)C2CC2)cc2cc(Cl)c(C)nc12 (single isomer, unassigned) [Example 19]"
< 10,> 1000,"COc1cc(C(=O)NC[C@](O)(c2cc(C3(O)CC3)c(F)c(-c3ccc(F)cc3)n2)C2CC2)cc2cn(C3CC3)nc12 (single isomer, unassigned) [Example 50]"
> 50,–,"COc1cc(C(=O)NC[C@](O)(c2cc(C(F)(F)C(N)=O)c(F)c(-c3cc(Cl)c(F)cc3F)n2)C2CC2)cc2cc(Cl)c(C)nc12 (single isomer, unassigned) [Example 42]"
10 to 50,–,"NC(=O)C1(c2cc([C@@](O)(CNC(=O)c3cc(OC4CC4)c4nn(C5(F)CC5)cc4c3)C3CC3)nc(-c3cc(Cl)c(F)cc3F)c2F)CC1 (single isomer, unassigned) [Example 16]"
10 to 50,–,"NC(=O)C1(c2cc([C@@](O)(CNC(=O)c3cc(OC4CC4)c4nn(C5CC5)cc4c3)C3CC3)nc(-c3cc(Cl)c(F)cc3F)c2F)CC1 (single isomer, unassigned) [Example 14]"
> 50,–,"COc1cc(C(=O)NC[C@](O)(c2cc(C(F)(F)C(N)=O)c(F)c(-c3ccc(F)c(Cl)c3F)n2)C2CC2)ccc1OC[C@@H](C)O (single isomer, unassigned) [Example 37]"
10 to 50,–,"N#CC1(c2cc([C@@](O)(CNC(=O)c3cc(OC4CC4)c4nn(C5(F)CC5)cc4c3)C3CC3)nc(-c3cc(Cl)c(F)cc3F)c2F)CC1 (single isomer, unassigned) [Example 17]"
10 to 50,–,"COc1cc(C(=O)NC[C@](O)(c2cc(C(F)(F)C(N)=O)c(F)c(-c3cc(Cl)c(F)cc3F)n2)C2CC2)cc2cn(C(F)F)nc12 (single isomer, unassigned) [Example 41]"
< 10,–,"COc1cc(C(=O)NC[C@](O)(c2cc(C(F)(F)C(N)=O)c(F)c(-c3ccc(F)c(Cl)c3F)n2)C2CC2)cc2cn(C3(F)CC3)nc12 (single isomer, unassigned) [Example 33]"

# From patent US12162857B2, “Antiviral compounds” (priority 2022, dated 2024)
